Measurements reported in article PMC8002893, “Influence of Complexation of Thiosemicarbazone Derivatives with Cu (II) Ions on Their Antitumor Activity against Melanoma Cells” (International Journal of Molecular Sciences, 2021).
Where “and” joins values, the source holds several entries; their conditions need not be identical. Identical values can stand only once.

Experiments:
DNA of A375 cells = experiment: DNA damage evaluation: number of AP sites; assay type: cell-based, human; conditions: A375, 24 h, concentration corresponding to IC50; control 0.67 ± 0.08
Experimental: DNA damage was evaluated on the basis of a basic (AP) sites presence, that arose in response to oxidative damage or as an intermediate in base excision repair pathway. The A375 cells were seeded in 6-well culture plates at a density 1 × 10^5 cells/mL and after 70–80% confluency achievement the cells were treated with CuT1, Cu10, CuT16 in concentrations corresponding to IC50 values or DMSO as vehicle in control cultures. After 24 h of incubation genomic DNA was isolated using Syngen DNA Mini Kit (Syngen Biotech, Wroclaw, Poland) according to the manufacturer’s instruction. The concentrations of isolated DNA for all samples were equalized to 100 µg/mL. The measurements of the number of AP sites were evaluated with DNA Damage Quantification Kit (Dojindo, Japan) according to the manufacturer’s instruction. The DNA was treated with Aldehyde Reactive Probe (ARP) to tag all of the AP sites with a biotin residue. Then all of the AP sites were quantified using avidin—biotin assay. The coloured product of horseradish peroxidase conjugated to the avidin was detected at 650 nm using a PowerWave™ xs microplate spectrophotometer (BioTek Instruments, Winooski, VT, USA).

[1] = tested on: A375 human melanoma cells; experiment: MTT cell viability assay, A375 melanoma; assay type: cell-based; conditions: for IC50: A375, MTT test, 24 h treatment; for toxicity to A375 / malignant cells versus normal cells (in words): from IC50 values, MTT, 24 h
Experimental: (§1) The evaluation of cytotoxicity of tested compounds was carried out on the G361, A375, and SK-MEL-28 human melanoma cells and BJ human normal fibroblast cells. The cell lines were obtained from American Type Culture Collection (ATCC, Manassas, VA, USA). The cells were cultured at 37 °C in the presence of 5% CO2 in atmosphere. The culture medium (Dulbecco’s Modified Eagle’s Medium for G361 and A375 and Eagle’s Minimum Essential Medium for SK-MEL-28 and BJ) was supplemented with 10% foetal bovine serum. The cells morphology was examined under inverted phase contrast microscope Nikon Eclipse Ti (Nikon, Tokyo, Japan). The authenticity of tested cell lines was verified by short tandem repeat (STR) genotyping in the Department of Forensic Medicine (Medical University of Lublin, Lublin, Poland).
(§2) The cells were seeded into 96-well plates (in concentration: BJ, A375, and SK-MEL-28—1 × 10^5 cells/mL, G361—1.5 × 10^5 cells/mL) and cultured until they reach 70–80% confluency. Then the cells were incubated with tested compounds and dacarbazine in concentrations ranging from 10 to 500 µM or DMSO as vehicle in control cultures for next 24 h (max. DMSO concentration <0.5%). The compounds cytotoxicity was evaluated with the MTT colorimetric method based on the ability of viable cells to the transformation of tetrazolium salts (3-[4,5-dimethylthiazol-2-yl]-2,5-) diphenyltetrazolium bromide, MTT) to purple formazan, by cellular dehydrogenases. After 24-h-incubation cell cultures were supplemented with 20 µL of 5 mg/mL MTT (Thermofisher, Waltham, MA, USA) stock in PBS (Corning, NY, USA), and the incubation was continued for 4 h at 37 °C. Next, the medium with MTT was removed, and the formed crystals were dissolved in 200 µL of DMSO (dimethyl sulfoxide, Avantor, Gliwice, Poland). The solution absorbency was measured at 570 nm, using a PowerWave™ xs microplate spectrophotometer (BioTek Instruments, Winooski, VT, USA). The experiment was performed three times with three replicates for each concentration of tested compounds. IC50 values were determined using the AAT Bioquest IC50 calculator [51]. On the basis of obtained IC50 values for normal and malignant cells, A375 cell line and three tested compounds (CuT1, Cu10, CuT16) were chosen for further investigation.

OGG1 = experiment: qRT-PCR gene expression in A375 cells: OGG1; assay type: cell-based, human; conditions: A375, 24 h, concentration corresponding to IC50; RQ = 2^-ΔΔCt vs control
Experimental: (§3) The expression level of genes connected with DNA repair and oxidative stress response was evaluated with quantitative real-time PCR (qRT-PCR) method. The A375 cells were seeded in 6-well culture plates at a density 1 × 10^5 cells/mL and after 70–80% confluency achievement the cells were treated with CuT1, Cu10, CuT16 in concentrations corresponding to IC50 values or DMSO as vehicle in control cultures. After 24h of incubation total RNA was isolated using the Syngen Blood/Cell RNA Mini Kit (Syngen Biotech, Wroclaw, Poland). All samples were transcribed using NG dART RT-PCR reagents (EURx, Gdansk, Poland) according to the manufacturer’s instructions. The relative mRNA expression level was determined by relative quantification method (ΔΔCt) using 18S ribosomal N5 (RNA18SN5) and beta-actin (ACTB) as endogenous controls. The reference genes were selected on the basis of our preliminary studies, where RNA18SN5 and ACTB remained unaffected by the experimental conditions. The PCR was conducted in triplicate using Applied Biosystems® 7500 Fast Real-Time PCR system (Applied Biosystems, Foster City, CA, USA) and SG qPCR Master Mix (2×) (EURx, Gdansk, Poland) in accordance with the manufacturer’s protocol. Data was presented and analysed as RQ values (RQ = 2^−ΔΔCt).

[2] = tested on: SK-MEL-28 human melanoma cells; experiment: MTT cell viability assay, SK-MEL-28 melanoma; assay type: cell-based; conditions: SK-MEL-28, MTT test, 24 h treatment
Experimental: as §1, §2

MGMT = experiment: qRT-PCR gene expression in A375 cells: MGMT; assay type: cell-based, human; conditions: A375, 24 h, concentration corresponding to IC50; RQ = 2^-ΔΔCt vs control
Experimental: as §3

MSH2 = experiment: qRT-PCR gene expression in A375 cells: MSH2; assay type: cell-based, human; conditions: A375, 24 h, concentration corresponding to IC50; RQ = 2^-ΔΔCt vs control
Experimental: as §3

[3] = tested on: BJ human normal fibroblast cells; experiment: MTT cell viability assay, BJ normal fibroblasts; assay type: cell-based; conditions: MTT test, 24 h treatment
Experimental: as §1, §2

SOD2 = experiment: qRT-PCR gene expression in A375 cells: SOD2; assay type: cell-based, human; conditions: A375, 24 h, concentration corresponding to IC50; RQ = 2^-ΔΔCt vs control
Experimental: as §3

MLH1 = experiment: qRT-PCR gene expression in A375 cells: MLH1; assay type: cell-based, human; conditions: A375, 24 h, concentration corresponding to IC50; RQ = 2^-ΔΔCt vs control
Experimental: as §3

XPC = experiment: qRT-PCR gene expression in A375 cells: XPC; assay type: cell-based, human; conditions: A375, 24 h, concentration corresponding to IC50; RQ = 2^-ΔΔCt vs control
Experimental: as §3

ERCC = experiment: qRT-PCR gene expression in A375 cells: ERCC; assay type: cell-based, human; conditions: A375, 24 h, concentration corresponding to IC50; RQ = 2^-ΔΔCt vs control
Experimental: as §3

A375 cells = experiment: Microscopic observation of cell morphology; assay type: cell-based, human; conditions: A375, 24 h, concentration corresponding to IC50
Experimental: The MTT test results for selected compounds were verified by microscopic observations of cell morphology. […] A large part of the cells floated in the culture medium (Figure 5).
as §1

[4] = tested on: G361 human melanoma cells; experiment: MTT cell viability assay, G361 melanoma; assay type: cell-based; conditions: G361, MTT test, 24 h treatment
Experimental: as §1, §2

GPX2 = experiment: qRT-PCR gene expression in A375 cells: GPX2; assay type: cell-based, human; conditions: A375, 24 h, concentration corresponding to IC50; RQ = 2^-ΔΔCt vs control
Experimental: as §3

ATM = experiment: qRT-PCR gene expression in A375 cells: ATM; assay type: cell-based, human; conditions: A375, 24 h, concentration corresponding to IC50; RQ = 2^-ΔΔCt vs control
Experimental: as §3

PARP1 = experiment: qRT-PCR gene expression in A375 cells: PARP1; assay type: cell-based, human; conditions: A375, 24 h, concentration corresponding to IC50; RQ = 2^-ΔΔCt vs control
Experimental: as §3

CAT = experiment: qRT-PCR gene expression in A375 cells: CAT; assay type: cell-based, human; conditions: A375, 24 h, concentration corresponding to IC50; RQ = 2^-ΔΔCt vs control
Experimental: as §3

IC50 [1]	IC50 [2]	IC50 [4]	Structure (SMILES)	AP sites number (DNA of A375 cells)	toxicity to A375 / malignant cells versus normal cells (in words) [1]	Mean RQ OGG1 mRNA (OGG1)	Mean RQ MGMT mRNA (MGMT)	Mean RQ MSH2 mRNA (MSH2)	IC50 [3]	Mean RQ SOD2 mRNA (SOD2)	Mean RQ MLH1 mRNA (MLH1)	Mean RQ XPC mRNA (XPC)	Mean RQ ERCC mRNA (ERCC)	cell morphology (in words) (A375 cells)	Mean RQ GPX2 mRNA (GPX2)	Mean RQ ATM mRNA (ATM)	Mean RQ PARP1 mRNA (PARP1)	Mean RQ CAT mRNA (CAT)
145 ± 19.9 µM	478 ± 11 µM	> 500 µM	COc1ccc(C=NNC(=S)Nc2ccc(Cl)cc2)cc1OC.[Cl-].[Cl-].[Cu+2] [CuT16]	14.09 ± 0.44 AP/100 kbp	less toxic for normal cells	0.952	0.361	0.936	450 ± 11.7 µM	1.393	0.929	1.438	0.267	became round and had poor adherence	0.022	2.724	0.640	0.387
69.9 ± 1.87 µM	130 ± 3.98 µM	136 ± 7.01 µM	COc1ccc(C=NNC(=S)Nc2ccccc2)cc1OC.[Cl-].[Cl-].[Cu+2] [CuT1]	20.24 ± 0.19 AP/100 kbp	less toxic for normal cells	0.902	0.715	0.973	257 ± 4.45 µM	1.510	1.001	1.038	0.401	became round and had poor adherence	0.000	1.452	0.908	0.773
26.1 ± 1.75 µM	133 ± 8.34 µM	251 ± 11.1 µM	COc1ccc(C=NNC(=S)Nc2ccccc2Cl)cc1OC.COc1ccc(C=NNC(=S)Nc2ccccc2Cl)cc1OC.[Cl-].[Cl-].[Cu+2] [CuT10]	2.043 ± 0.02 AP/100 kbp	less toxic for normal cells	0.264 ± 0.071 and 0.264	0.448	1.337	203 ± 8.67 µM	1.430	0.337	1.456	1.215	became round and had poor adherence	0.022	2.038	0.342	0.801
